{
  "source": "patent US20050037923A1",
  "about": "“Herbicidal mixture based on 7-pyrazolybenzoxazoles” (BASF Aktiengesellschaft, priority 2001, published 2005)",
  "key": {"COMBE": {"tested_on": "COMBE", "assay": "Greenhouse test, post-emergence herbicidal action", "assay_type": "in vivo, tropical spiderwort", "conditions": "21 days", "source_text": "(§1) For the post-emergence treatment, the test plants were first grown to a height of 3 to 20 cm, depending on the plant habit, and only then treated. Here, the herbicidal compositions were suspended or emulsified in water as distribution medium and sprayed using finely distributing nozzles.\n(§2) The respective components A and B and/or C were formulated as 10% by weight strength emulsion concentrate and introduced to the spray liquor with the amount of solvent system used for applying the active compound. In the examples, the solvent used was water.\n(§3) The test period extended over 21 days. During this time, the plants were tended, and their response to the treatments with active compound was evaluated.\n(§4) The evaluation for the damage caused by the chemical compositions was carried out using a scale from 0 to 100%, compared to the untreated control plants. Here, 0 means no damage and 100 means complete destruction of the plants.\n(§5) In the examples below, the value E which is to be expected if the activity of the individual active compounds is just additive was calculated using the method of S. R. Colby (1967) “Calculating synergistic and antagonistic responses of herbicide combinations”, Weeds 15, p. 22 ff. E=X+Y—(X·Y/100) where • X=effect in percent using active compound A at an application rate a; • Y=effect in percent using active compound B at an application rate b; • E=expected effect (in %) of A+B at application rates a+b.\n(§6) The plants used in the greenhouse experiments were of the following species: […]"}, "POLPE": {"tested_on": "POLPE", "assay": "Greenhouse test, post-emergence herbicidal action", "assay_type": "in vivo, ladysthumb", "source_text": "as §1, §2, §3, §4, §5, §6"}, "BIDPI": {"tested_on": "BIDPI", "assay": "Greenhouse test, post-emergence herbicidal action", "assay_type": "in vivo, hairy beggarticks", "source_text": "as §1, §2, §3, §4, §5, §6"}, "ECHCG": {"tested_on": "ECHCG", "assay": "Greenhouse test, post-emergence herbicidal action", "assay_type": "in vivo, barnyardgrass", "source_text": "as §1, §2, §3, §4, §5, §6"}, "GALAP": {"tested_on": "GALAP", "assay": "Greenhouse test, post-emergence herbicidal action", "assay_type": "in vivo, catchweed bedstraw", "source_text": "as §1, §2, §3, §4, §5, §6"}, "AVEFA": {"tested_on": "AVEFA", "assay": "Greenhouse test, post-emergence herbicidal action", "assay_type": "in vivo, wild oat", "source_text": "as §1, §2, §3, §4, §5, §6"}, "THLAR": {"tested_on": "THLAR", "assay": "Greenhouse test, pre-emergence herbicidal action", "assay_type": "in vivo, fanweed", "conditions": "application rate 250 g/ha", "source_text": "For the pre-emergence treatment, the test plants were sown is pots 1-2 days later, i.e. prior to germination, the pots were sprayed with the finely distributed herbicidal compositions, which had been suspended in water.\nas §2, §3, §4, §5, §6"}, "SETVI": {"tested_on": "SETVI", "assay": "Greenhouse test, post-emergence herbicidal action", "assay_type": "in vivo, green foxtail", "conditions": "application rate 15.63 g/ha", "source_text": "as §1, §2, §3, §4, §5, §6"}, "SETFA": {"tested_on": "SETFA", "assay": "Greenhouse test, post-emergence herbicidal action", "assay_type": "in vivo, giant foxtail", "conditions": "21 days", "source_text": "as §1, §2, §3, §4, §5, §6"}, "[1]": {"conditions": "application rate 15.63 g/ha, 21 days"}, "[2]": {"conditions": "application rate 31.25 g/ha, 21 days"}, "[3]": {"conditions": "application rate 125 g/ha (Example 32)"}, "[4]": {"conditions": "application rate 250 g/ha (Example 32)"}, "[5]": {"conditions": "application rate 7.81 g/ha, 21 days"}, "[6]": {"conditions": "application rate 62.5 g/ha (Example 24)"}, "[7]": {"conditions": "application rate 125 g/ha (Example 24)"}},
  "data": [
    {"smiles": "Cc1cnc(C2=NC(=O)C(C)(C(C)C)N2)c(C(=O)O)c1", "note": "(centres unmarked) [imazapic, reference compound]", "values": [
      {"measurement": "Herbicidal action against COMBE, Found", "setting": "COMBE; application rate 15.63 g/ha", "result": 0, "unit": "%"},
      {"measurement": "Herbicidal action against COMBE, Found", "setting": "COMBE; application rate 31.25 g/ha", "result": 40, "unit": "%"},
      {"measurement": "Herbicidal action against POLPE, Found", "setting": "POLPE; [1]", "result": 75, "unit": "%"},
      {"measurement": "Herbicidal action against POLPE, Found", "setting": "POLPE; [2]", "result": 80, "unit": "%"}
    ]},
    {"smiles": "CCc1cnc(C2=NC(C)(C(C)C)C(=O)N2)c(C(=O)O)c1", "note": "(centres unmarked) [imazethapyr, reference compound]", "values": [
      {"measurement": "Herbicidal action against COMBE, Found", "setting": "COMBE; application rate 15.63 g/ha", "result": 20, "unit": "%"},
      {"measurement": "Herbicidal action against COMBE, Found", "setting": "COMBE; application rate 31.25 g/ha", "result": 40, "unit": "%"},
      {"measurement": "Herbicidal action against POLPE, Found", "setting": "POLPE; [1]", "result": 40, "unit": "%"},
      {"measurement": "Herbicidal action against POLPE, Found", "setting": "POLPE; [2]", "result": 60, "unit": "%"}
    ]},
    {"smiles": "CC(C)c1ccc(NC(=O)N(C)C)cc1", "note": "[isoproturon]", "values": [
      {"measurement": "Herbicidal action against BIDPI, Found", "setting": "BIDPI; application rate 62.5 g/ha", "result": 30, "unit": "%"},
      {"measurement": "Herbicidal action against BIDPI, Found", "setting": "BIDPI; application rate 125 g/ha", "result": 60, "unit": "%"}
    ]},
    {"smiles": "CCC(C)(CC)c1cc(NC(=O)c2c(OC)cccc2OC)on1", "note": "[isoxaben]", "values": [
      {"measurement": "Herbicidal action against ECHCG, Found", "setting": "ECHCG; [3]", "result": 0, "unit": "%"},
      {"measurement": "Herbicidal action against ECHCG, Found", "setting": "ECHCG; [4]", "result": 0, "unit": "%"},
      {"measurement": "Herbicidal action against GALAP, Found", "setting": "GALAP; [3]", "result": 0, "unit": "%"},
      {"measurement": "Herbicidal action against GALAP, Found", "setting": "GALAP; [4]", "result": 0, "unit": "%"}
    ]},
    {"smiles": "CS(=O)(=O)c1ccc(C(=O)C2C(=O)CCCC2=O)c([N+](=O)[O-])c1", "note": "[mesotrione]", "values": [
      {"measurement": "Herbicidal action against ECHCG, Found", "setting": "ECHCG; application rate 7.81 g/ha", "result": 45, "unit": "%"},
      {"measurement": "Herbicidal action against ECHCG, Found", "setting": "ECHCG; application rate 15.63 g/ha", "result": 70, "unit": "%"}
    ]},
    {"smiles": "COc1cc(OC)nc(NC(=O)NS(=O)(=O)c2ncccc2C(=O)N(C)C)n1", "note": "[nicosulfuron]", "values": [
      {"measurement": "Herbicidal action against BIDPI, Found", "setting": "BIDPI; application rate 3.91 g/ha (Example 26)", "result": 70, "unit": "%"},
      {"measurement": "Herbicidal action against BIDPI, Found", "setting": "BIDPI; application rate 7.81 g/ha (Example 26)", "result": 80, "unit": "%"}
    ]},
    {"smiles": "C[n+]1ccc(-c2cc[n+](C)cc2)cc1", "note": "[paraquat]", "values": [
      {"measurement": "Herbicidal action against AVEFA, Found", "setting": "AVEFA; application rate 62.5 g/ha", "result": 70, "unit": "%"},
      {"measurement": "Herbicidal action against AVEFA, Found", "setting": "AVEFA; application rate 125 g/ha", "result": 80, "unit": "%"}
    ]},
    {"smiles": "CCC(CC)Nc1c([N+](=O)[O-])cc(C)c(C)c1[N+](=O)[O-]", "note": "[pendimethalin]", "values": [
      {"measurement": "Herbicidal action against THLAR, Found", "setting": "THLAR", "result": 40, "unit": "%"}
    ]},
    {"smiles": "O=C(Nc1ccc(F)cc1)c1cccc(Oc2cccc(C(F)(F)F)c2)n1", "note": "[picolinafen]", "values": [
      {"measurement": "Herbicidal action against SETVI, Found", "setting": "SETVI", "result": 40, "unit": "%"}
    ]},
    {"smiles": "CCCC(=NOCC(C)Oc1ccc(Cl)cc1)C1=C(O)CC(C2CCCSC2)CC1=O", "note": "(centres unmarked) [profoxydim, reference compound]", "values": [
      {"measurement": "Herbicidal action against GALAP, Found", "setting": "GALAP; [5]", "result": 30, "unit": "%"},
      {"measurement": "Herbicidal action against GALAP, Found", "setting": "GALAP; [1]", "result": 30, "unit": "%"}
    ]},
    {"smiles": "CCCOc1nn(C(=O)[N-]S(=O)(=O)c2ccccc2C(=O)OC)c(=O)n1C.[Na+]", "note": "[propoxycarbazone sodium salt]", "values": [
      {"measurement": "Herbicidal action against BIDPI, Found", "setting": "BIDPI; application rate 3.91 g/ha (Example 27)", "result": 30, "unit": "%"},
      {"measurement": "Herbicidal action against BIDPI, Found", "setting": "BIDPI; application rate 7.81 g/ha (Example 27)", "result": 40, "unit": "%"}
    ]},
    {"smiles": "CCOC(=O)c1cnn(C)c1S(=O)(=O)NC(=O)Nc1nc(OC)cc(OC)n1", "note": "[pyrazosulfuron-ethyl, reference compound]", "values": [
      {"measurement": "Herbicidal action against AVEFA, Found", "setting": "AVEFA; [1]", "result": 0, "unit": "%"},
      {"measurement": "Herbicidal action against AVEFA, Found", "setting": "AVEFA; [2]", "result": 10, "unit": "%"},
      {"measurement": "Herbicidal action against POLPE, Found", "setting": "POLPE; [1]", "result": 40, "unit": "%"},
      {"measurement": "Herbicidal action against POLPE, Found", "setting": "POLPE; [2]", "result": 55, "unit": "%"}
    ]},
    {"smiles": "O=C(O)c1c(Cl)ccc2cc(Cl)cnc12", "note": "[quinclorac]", "values": [
      {"measurement": "Herbicidal action against ECHCG, Found", "setting": "ECHCG; [6]", "result": 10, "unit": "%"},
      {"measurement": "Herbicidal action against ECHCG, Found", "setting": "ECHCG; [7]", "result": 10, "unit": "%"},
      {"measurement": "Herbicidal action against POLPE, Found", "setting": "POLPE; [6]", "result": 15, "unit": "%"},
      {"measurement": "Herbicidal action against POLPE, Found", "setting": "POLPE; [7]", "result": 15, "unit": "%"}
    ]},
    {"smiles": "CC/C(=N\\OC/C=C/Cl)C1=C(O)CC(C2CCOCC2)CC1=O", "note": "(centres unmarked) [tepraloxydim, reference compound]", "values": [
      {"measurement": "Herbicidal action against AVEFA, Found", "setting": "AVEFA; [5]", "result": 70, "unit": "%"},
      {"measurement": "Herbicidal action against AVEFA, Found", "setting": "AVEFA; [1]", "result": 80, "unit": "%"},
      {"measurement": "Herbicidal action against SETFA, Found", "setting": "SETFA; application rate 7.81 g/ha", "result": 70, "unit": "%"},
      {"measurement": "Herbicidal action against SETFA, Found", "setting": "SETFA; application rate 15.63 g/ha", "result": 80, "unit": "%"}
    ]}
  ]
}
